The test system of this assay is human peripheral blood monocytes (MPs). The assay can be described thus: Mononuclear phagocyte migration in microchemotaxis chambers. It counts as cell-based. The protocol: Assessment of mononuclear phagocyte (mononuclears) and polymorphonuclear leukocyte (PMN) migration. Human peripheral blood monocytes were isolated from the blood of normal healthy volunteers (30). Blood was centrifuged on Hisopaque 1077 (Sigma, St. Louis, Mo.), the mononuclear fraction was obtained, washed twice in Earle's balanced salt solution, resuspended in RPMI 1640 containing human serum (10%; Gemini, Calabasas, Calif.), plated on tissue culture dishes and incubated at 37° C. for 1-2 hrs. Nonadherent cells were removed by washing the plate twice with balanced salt solution, and adherent cells were harvested by incubation with calcium-magnesium free buffer containing EDTA (2 mM) for 15 min at 37° C., followed by extensive washing. PMNs were prepared by centrifugation over Hisopaque 1119 as per the manufacturer's protocol (Sigma). Chemotaxis assays were performed in microchemotaxis chamber (NeuroProbe, Bethesda, Md.) containing Nucleopore polycarbonate membranes (5 μm; Nucleopore, Pleasonton, Calif.). Mononuclears or PMNs were suspended in RPMI 1640 containing fetal bovine serum (1%) and 10^4 cells were added per well to the upper chamber. The chemotactic stimulus was added to the indicated chamber, and assays were performed in quadruplicate over a 3 hr or 45 min incubation period at 37° C., with mononuclear cells or PMNs, respectively, after which non-migrating cells were removed, membranes were fixed in methanol, migrating cells were visualized with Wright's stain. Cells in nine high-power fields were counted, and the mean and standard error of the mean (SEM) were determined.
Cell migration was studied by adding MPs or PMNs (10^4 cells/well) resuspended in RPMI 1640 with fetal calf serum (1%; Gemini) to the upper wells of a microchemotaxis chamber (Neuro Probe, Bethesda, Md.) containing Nucleopore polycarbonate membranes (5 μm, Nucleopore, Pleasanton Calif.), as described (7,29-30). The chemotactic stimulus was placed in the upper or lower chamber, as indicated, and cells were allowed to migrate for 3 hrs (for MPs) or 45 min (for PMNs) at 37° C. Following removal of non-migrating cells, membranes were fixed in methanol and migrating cells were visualized with Wright's stain. Assays were performed in quadruplicate, and cells were counted in nine high-power fields in each case (mean±SEM is shown in the figures).
Migration of PMNs and MPs—Migration was studied using cells (10^4 and 10^3 cells/well form PMNs and MPs, respectively) resuspended in RPMI 1640 with fetal calf serum (1%) added to the upper wells of a microchemotaxis chamber (Neuro Probe, Bethesda, Md.) containing Nucleopore polycarbonate membranes (5 um, Nucleopor, Pleasanton, Calif.), as described (13, 22, 35). The stimulus was placed in the upper or lower chamber, as indicated, and the cells were allowed to migrate for 3 h (for MPs) or 45 min (for PMNs) at 37° C. Following removal of nonmigrating cells, membranes were fixed in methanol, and migrating cells were visualized with Wright's stain. Assays were performed in quadruplicate, and cells were counted in […] high-power fields in each case (mean±S.E. is shown in the figures).

On to “ASRLDLRIGRIVTAKY [residues #6-20 from EMAP II, Cys to Arg substitution at position #15, and a C-terminal Tyr]”, for which the “Induction of MP (mononuclear cell) migration (chemotaxis)” value (microchemotaxis chamber, 3 hrs at 37° C.) is “induce chemotaxis”. For the same sequence, the “MP migration at 100 pM peptide relative to FMLP at 1 μM” value (peptide 100 pM) is “similar”.

The record behind these values is patent publication US6734168B2, “Endothelial monocyte activating polypeptide II: a mediator which activates host response” (The Trustees of Columbia University in the City of New York, priority 1993, dated 2004).
